Measurements: PubChem BioAssay AID1919000 (Molecular Pharmacology Branch, DTP, NCI, 2023)
“And” between values parts separate entries of the source, which are not always exact repeats. Identical values can stand only once. Blank lines part the entries; values can stand above or below the compound they belong to.

Test system: 653999-131-R-J2-PDC complex spheroids, growth % test/control
Test: Anticancer human tumor 653999-131-R-J2-PDC patient-derived lung adenocarcinoma cell line growth inhibition [AhR]
Conditions: for viability, T/C: stronger effect = lower value
Method in brief: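 Complex tumor spheroids co-cultured with HUVEC and human MSC stroma; AhR antagonists tested in combination with standard-of-care and investigational agents. Top concentration at or near clinical Cmax (else 10 microM), half-log dilutions; growth expressed as percent test/control.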

[1] = curve of first compound, second compound 0.1 µM
[2] = curve of first compound, second compound 0.316 µM
[3] = curve of first compound, second compound 1 µM
[4] = curve of first compound, second compound 3.16 µM
[5] = curve of first compound, second compound 10 µM
[6] = second compound 0.1 µM, first compound 0.0316 µM
[7] = second compound 0.1 µM, first compound 0.1 µM
[8] = second compound 0.1 µM, first compound 0.316 µM
[9] = second compound 0.1 µM, first compound 1 µM
[10] = second compound 0.316 µM, first compound 0.0316 µM
[11] = second compound 0.316 µM, first compound 0.1 µM
[12] = second compound 0.316 µM, first compound 0.316 µM
[13] = second compound 0.316 µM, first compound 1 µM
[14] = second compound 1 µM, first compound 0.0316 µM
[15] = second compound 1 µM, first compound 0.1 µM
[16] = second compound 1 µM, first compound 0.316 µM
[17] = second compound 1 µM, first compound 1 µM
[18] = second compound 3.16 µM, first compound 0.0316 µM
[19] = second compound 3.16 µM, first compound 0.1 µM
[20] = second compound 3.16 µM, first compound 0.316 µM
[21] = second compound 3.16 µM, first compound 1 µM
[22] = second compound 10 µM, first compound 0.0316 µM
[23] = second compound 10 µM, first compound 0.1 µM
[24] = second compound 10 µM, first compound 0.316 µM
[25] = second compound 10 µM, first compound 1 µM
[26] = second compound 0.1 µM, first compound 3.16 µM
[27] = second compound 0.1 µM, first compound 10 µM
[28] = second compound 0.316 µM, first compound 3.16 µM
[29] = second compound 0.316 µM, first compound 10 µM
[30] = second compound 1 µM, first compound 3.16 µM
[31] = second compound 1 µM, first compound 10 µM
[32] = second compound 3.16 µM, first compound 3.16 µM
[33] = second compound 3.16 µM, first compound 10 µM
[34] = second compound 10 µM, first compound 3.16 µM
[35] = second compound 10 µM, first compound 10 µM
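Further: spheroids exposed to agents for seven days.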
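Wherever viability, T/C is given: 100% = DMSO vehicle control viability.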

Compound: CCc1c2c(nc3ccc(O)cc13)-c1cc3c(c(=O)n1C2)COC(=O)[C@]3(O)CC + Cc1ccccc1N=Nc1ccc(NC(=O)c2ccnn2C)c(C)c1
IC50 [1]: 11.5 nM
IC50 [2]: 10.9 nM
IC50 [3]: 9.66 nM
IC50 [4]: 9.18 nM
IC50 [5]: 10.2 nM
viability, T/C (second compound 0.1 µM, first compound 0.000949 µM): 94.8%
viability, T/C (second compound 0.1 µM, first compound 0.003 µM): 76.6%
viability, T/C (second compound 0.1 µM, first compound 0.00949 µM): 51%
viability, T/C (second compound 0.1 µM, first compound 0.03 µM): 34.7%
viability, T/C (second compound 0.1 µM, first compound 0.0949 µM): 29.7%
viability, T/C (second compound 0.1 µM, first compound 0.3 µM): 17.4%
viability, T/C (second compound 0.316 µM, first compound 0.000949 µM): 88%
viability, T/C (second compound 0.316 µM, first compound 0.003 µM): 80.6%
viability, T/C (second compound 0.316 µM, first compound 0.00949 µM): 49.7%
viability, T/C (second compound 0.316 µM, first compound 0.03 µM): 32.9%
viability, T/C (second compound 0.316 µM, first compound 0.0949 µM): 30.1%
viability, T/C (second compound 0.316 µM, first compound 0.3 µM): 17.7%
viability, T/C (second compound 1 µM, first compound 0.000949 µM): 85.6%
viability, T/C (second compound 1 µM, first compound 0.003 µM): 72.6%
viability, T/C (second compound 1 µM, first compound 0.00949 µM): 46%
viability, T/C (second compound 1 µM, first compound 0.03 µM): 37.3%
viability, T/C (second compound 1 µM, first compound 0.0949 µM): 25.4%
viability, T/C (second compound 1 µM, first compound 0.3 µM): 19.2%
viability, T/C (second compound 3.16 µM, first compound 0.000949 µM): 81.3%
viability, T/C (second compound 3.16 µM, first compound 0.003 µM): 65%
viability, T/C (second compound 3.16 µM, first compound 0.00949 µM): 51.3%
viability, T/C (second compound 3.16 µM, first compound 0.03 µM): 32.5%
viability, T/C (second compound 3.16 µM, first compound 0.0949 µM): 25.2%
viability, T/C (second compound 3.16 µM, first compound 0.3 µM): 14.7%
viability, T/C (second compound 10 µM, first compound 0.000949 µM): 73.6%
viability, T/C (second compound 10 µM, first compound 0.003 µM): 62.2%
viability, T/C (second compound 10 µM, first compound 0.00949 µM): 49.7%
viability, T/C (second compound 10 µM, first compound 0.03 µM): 41%
viability, T/C (second compound 10 µM, first compound 0.0949 µM): 27.5%
viability, T/C (second compound 10 µM, first compound 0.3 µM): 18.4%

Compound: O=C(C=Cc1cccc(S(=O)(=O)Nc2ccccc2)c1)NO + Cc1cncc(-c2nc(NCCc3c[nH]c4ccccc34)c3ncn(C(C)C)c3n2)c1
IC50 [1]: 2990 nM
IC50 [2]: 3320 nM
IC50 [3]: 3300 nM
IC50 [4]: 3480 nM
IC50 [5]: 1460 nM
viability, T/C [6]: 91.4%
viability, T/C [7]: 96.3%
viability, T/C [8]: 88%
viability, T/C [9]: 74.5%
viability, T/C [26]: 49.2%
viability, T/C [27]: 10.7%
viability, T/C [10]: 94.1%
viability, T/C [11]: 96.7%
viability, T/C [12]: 89%
viability, T/C [13]: 76.5%
viability, T/C [28]: 52.2%
viability, T/C [29]: 10.6%
viability, T/C [14]: 95.8%
viability, T/C [15]: 104%
viability, T/C [16]: 98.3%
viability, T/C [17]: 91.2%
viability, T/C [30]: 51.6%
viability, T/C [31]: 9.38%
viability, T/C [18]: 104%
viability, T/C [19]: 99.5%
viability, T/C [20]: 95.1%
viability, T/C [21]: 79.3%
viability, T/C [32]: 53.7%
viability, T/C [33]: 11.8%
viability, T/C [22]: 54.7%
viability, T/C [23]: 50.4%
viability, T/C [24]: 50.4%
viability, T/C [25]: 51.7%
viability, T/C [34]: 46.9%
viability, T/C [35]: 8.52%

Compound: CCc1c2c(nc3ccc(O)cc13)-c1cc3c(c(=O)n1C2)COC(=O)[C@]3(O)CC
viability, T/C (compound 0.000949 µM): 79% and 89.9% and 76.4%
viability, T/C (compound 0.003 µM): 75.3% and 80.9% and 76.6%
viability, T/C (compound 0.00949 µM): 54.4% and 59.1% and 45.1%
viability, T/C (compound 0.03 µM): 38.8% and 44.1% and 33.3%
viability, T/C (compound 0.0949 µM): 29.4% and 35.4% and 27.7%
viability, T/C (compound 0.3 µM): 20.6% and 19.6% and 16.8%
IC50 (curve of compound): 14.6 nM and 22.1 nM and 9.27 nM

Compound: CC(C)c1c(-c2ccccc2)nc2c(C#N)c[nH]n2c1=O + CC(CO)NC(=O)c1cc(-c2ccc(Cl)cc2)nn(-c2cnn(C)c2)c1=O
IC50 [1]: > 10000 nM
IC50 [2]: > 10000 nM
IC50 [3]: > 10000 nM
IC50 [4]: > 10000 nM
IC50 [5]: > 10000 nM
viability, T/C [6]: 104%
viability, T/C [7]: 105%
viability, T/C [8]: 99.4%
viability, T/C [9]: 94.2%
viability, T/C [26]: 93.3%
viability, T/C [27]: 90.9%
viability, T/C [10]: 102%
viability, T/C [11]: 105%
viability, T/C [12]: 93.3%
viability, T/C [13]: 101%
viability, T/C [28]: 93.8%
viability, T/C [29]: 99%
viability, T/C [14]: 104%
viability, T/C [15]: 106%
viability, T/C [16]: 114%
viability, T/C [17]: 98%
viability, T/C [30]: 97.9%
viability, T/C [31]: 95.4%
viability, T/C [18]: 105%
viability, T/C [19]: 108%
viability, T/C [20]: 123%
viability, T/C [21]: 93.6%
viability, T/C [32]: 92.2%
viability, T/C [33]: 91.9%
viability, T/C [22]: 104%
viability, T/C [23]: 116%
viability, T/C [24]: 100%
viability, T/C [25]: 102%
viability, T/C [34]: 95.4%
viability, T/C [35]: 96.7%

More lines, main results first:

IC50 [1]: > 1000 nM
IC50 [2]: > 1000 nM
IC50 [3]: > 1000 nM
IC50 [4]: > 1000 nM
IC50 [5]: 210 nM
Compound: Nc1ncn(C2CC(O)C(CO)O2)c(=O)n1 (configuration not stated) + Cc1cncc(-c2nc(NCCc3c[nH]c4ccccc34)c3ncn(C(C)C)c3n2)c1
viability, T/C (second compound 0.1 µM, first compound 0.00316 µM): 96.2%
viability, T/C (second compound 0.1 µM, first compound 0.01 µM): 86.1%
viability, T/C [6]: 92.3%
viability, T/C [7]: 86.5%
viability, T/C [8]: 88.2%
viability, T/C [9]: 77.5%
viability, T/C (second compound 0.316 µM, first compound 0.00316 µM): 91.2%
viability, T/C (second compound 0.316 µM, first compound 0.01 µM): 94%
viability, T/C [10]: 90.8%
viability, T/C [11]: 85.1%
viability, T/C [12]: 87.7%
viability, T/C [13]: 83.6%
viability, T/C (second compound 1 µM, first compound 0.00316 µM): 106%
viability, T/C (second compound 1 µM, first compound 0.01 µM): 108%
viability, T/C [14]: 99.2%
viability, T/C [15]: 99.2%
viability, T/C [16]: 94.1%
viability, T/C [17]: 82%
viability, T/C (second compound 3.16 µM, first compound 0.00316 µM): 98.7%
viability, T/C (second compound 3.16 µM, first compound 0.01 µM): 95.2%
viability, T/C [18]: 106%
viability, T/C [19]: 98.3%
viability, T/C [20]: 96.9%
viability, T/C [21]: 90.2%
viability, T/C (second compound 10 µM, first compound 0.00316 µM): 54.6%
viability, T/C (second compound 10 µM, first compound 0.01 µM): 52.4%
viability, T/C [22]: 54%
viability, T/C [23]: 51.9%
viability, T/C [24]: 49.2%
viability, T/C [25]: 47.2%

IC50 [1]: 1940 nM
IC50 [2]: 3060 nM
IC50 [3]: 4740 nM
IC50 [4]: 1600 nM
IC50 [5]: 6310 nM
Compound: Nc1ccn(C2OC(CO)C(O)C2(F)F)c(=O)n1 (configuration not stated) + CC(CO)NC(=O)c1cc(-c2ccc(Cl)cc2)nn(-c2cnn(C)c2)c1=O
viability, T/C [6]: 65.4%
viability, T/C [7]: 66.8%
viability, T/C [8]: 61.2%
viability, T/C [9]: 48%
viability, T/C [26]: 48.4%
viability, T/C [27]: 42.9%
viability, T/C [10]: 73.9%
viability, T/C [11]: 69.8%
viability, T/C [12]: 62.2%
viability, T/C [13]: 58.4%
viability, T/C [28]: 46.5%
viability, T/C [29]: 45.3%
viability, T/C [14]: 67.5%
viability, T/C [15]: 69.9%
viability, T/C [16]: 58.6%
viability, T/C [17]: 58.1%
viability, T/C [30]: 50.4%
viability, T/C [31]: 47.1%
viability, T/C [18]: 78.1%
viability, T/C [19]: 74%
viability, T/C [20]: 63.7%
viability, T/C [21]: 55.7%
viability, T/C [32]: 42.7%
viability, T/C [33]: 40.9%
viability, T/C [22]: 96.5%
viability, T/C [23]: 76.8%
viability, T/C [24]: 64.4%
viability, T/C [25]: 58%
viability, T/C [34]: 51.7%
viability, T/C [35]: 48.4%
